Results on four compounds are retold here after paper PMC8401465, “In Vitro Testing of Alternative Synthetic and Natural Antiparasitic Compounds against the Monogenean Sparicotyle chrysophrii” (Pathogens, 2021).

SMILES strings stand for the structures. Entries after “also recorded” stand apart in the source; their conditions may differ. Where two headings read alike, the source gives them in different places.

The subject of one data set is Vibrio anguillarum. As to the kind of experiment: Bactericidal activity (MTT), Vibrio anguillarum. Particulars: for inhibition at 0.1 µM / inhibition at 1 µM / inhibition at 10 µM: Vibrio anguillarum, read-out: Bactericidal activity (%); for antibacterial activity against V. anguillarum: among the natural compounds. It is filed as cell-based. The procedure:
(§1) Two bacterial fish pathogens, Vibrio harveyi and V. anguillarum were used to test the bactericidal activity of the target compounds, being previously isolated and identified as described in [65]. Lab strains were maintained at −20 °C in Tryptone Soy Broth (TSB, Difco Laboratories, Inc., Detroit, MI, USA) supplemented with 1% (w/v) NaCl (TSB1) and 50% (v/v) glycerol. […] Bacteria in TSB medium were then cultured at the same temperature with continuous shaking (100 rpm) for 24 h. Exponentially grown bacteria were resuspended in sterile PBS and adjusted to the concentration of 10^8 colony forming units (cfu)/mL. Each target compound (20 μL; concentrations 0.1, 1, and 10 µM) was added (in triplicates) to the wells of a flat-bottom 96-well plate, except for the positive control that consisted of 0.5% DMSO in PBS. Aliquots of 20 μL of the previously cultured bacteria were added, and the plate was incubated for 5 h at 25 °C. […] The plate was then centrifuged (4500 rpm, 10 min) and the precipitate dissolved in 200 μL of DMSO. The solution (100 μL) from each well was transferred to another flat-bottom 96-well plate. The absorbance of the dissolved formazan was measured at 570 nm. Bactericidal activity was expressed as percentage of nonviable bacteria, calculated as the difference between absorbance of surviving bacteria compared to the absorbance of bacteria in positive controls (100%).

The test system of a further data set is Vibrio harveyi. The data set can be described thus: Bactericidal activity (MTT), Vibrio harveyi. In kind it is cell-based. Particulars: for inhibition at 0.1 µM / inhibition at 1 µM / inhibition at 10 µM: Vibrio harveyi, read-out: Bactericidal activity (%). As to the method: as §1
In data set [1] the test system is Sparicotyle chrysophrii adults. As to the kind of experiment: microbe, parasite or virus in culture. The conditions noted are these: Sparicotyle chrysophryii. As to the method: Firstly, the adult monogeneans were exposed to a range of four concentrations of tested compounds encompassing the full dose–response range; each compound stock at 10 mM was serially diluted 10 (1 mM), 10^2 (0.1 mM), 10^3 (0.01 mM), and 10^4 (1 µM) times. […] Ten monogeneans per well (in triplicate) were added to 2 mL sterile seawater (SW) in 6-well plates, checked at the stereomicroscope for visible signs of mechanical damage, and exposed to selected concentrations in the dark at room temperature (Table 1). The number of live/dead parasites was recorded under the stereomicroscope at 1, 4, 12, and 24 h post-exposure. S. chrysophrii was considered to be alive if it performed any type of movement autonomously or 5 s after gentle probing with a dissection needle. Negative controls comprised the seawater with up to 0.5% of DMSO in total volume, the latter used as a solvent for each compound.

In another data set the test system is SAF-1 cells. The data set can be described thus: Viability of SAF-1 cell line (MTT assay). The conditions noted are these: for viability of SAF-1 cells compared to control: 0.1–10 µM, 24, 48, 72 h. In kind it is cell-based, Sparus aurata. As to the method:
Sparus aurata fibroblast cell line SAF-1 (ECACC n°00122301) was cultured in 25 cm^2 plastic flasks (Nunc, Darmstadt, Germany) in L-15 Leibowitz medium (Sigma, Haverhill, UK) supplemented with 10% fetal bovine serum (FBS), 2 mmol/L L-glutamine, 100 iu/mL penicillin, and […] streptomycin (all reagents from Sigma-Aldrich, Saint Louis, MO, USA).
Cells were grown at 25 °C under an 85% humidity atmosphere. Cells at 80% of confluence were detached with trypsin solution (0.25% of trypsin in PBS, pH 7.2–7.4) and pelleted by centrifugation (1000 rpm, 10 min, 25 °C). The cell suspension in complete medium was dispensed in a 96-multiwell plate at a density of 8000 cells/well and incubated for 24 h before the exposure to the compounds.
Cytotoxicity assay was performed in six replicates. Stock solutions were prepared by dissolving the compounds in dimethyl sulfoxide (DMSO), and then diluting in complete medium (final concentration of DMSO 0.1%) to obtain concentration of 0.1, 1, and 10 µM of target compounds.
Cells were then incubated for 24, 48, and 72 h in three different plates at 25 °C. Control samples received the same volume of culture medium and DMSO 0.1%, although this concentration of solvent is considered non-toxic.
The toxicity of the compounds was determined using the (3-(4,5-dimethylthiazol-2-yl)-2,5-diphenyltetrazolium bromide (MTT, Sigma-Aldrich) assay, according to [62], as reported in [61]. The results were expressed as viability percentage in respect to the controls (untreated cells).
The MTT assay is based on the reduction in the yellow soluble tetrazolium salt (3-(4,5-dimethylthiazol-2-yl)-2,5-diphenyltetrazolium bromide) (MTT, Sigma-Aldrich, Saint Louis, Missouri, USA) into a blue, insoluble formazan produced by the mitochondrial succinate dehydrogenase. […] After 4 h of incubation, cells were washed again, and the formazan crystals solubilized with […] of DMSO. Plates were shaken (5 min, 100 rpm) in dark conditions and the optical densities (ODs) at 570 nm with background subtraction at 690 nm were determined in a microplate reader (Opsys MR™ Microplate Reader, USA). The percentage of viability was determined by formula:Viability (%) = (OD of the tested sample/OD of the control sample) × 100
(In general: Formazan colour is commonly taken as a measure of viable cells.)

Data set [2] deals with Sparicotyle chrysophrii adults. The data set can be described thus: microbe, parasite or virus in culture. Particulars: for LC20 (95% CI), toxicity level for adult S. chrysophrii: 20% mortality; for LC20 (95% CI), toxicity level for adult S. chrysophrii / LC80 (95% CI), toxicity level for adult S. chrysophrii: 4 h post-exposure; for LC80 (95% CI), toxicity level for adult S. chrysophrii: 80% mortality; for LC50: Sparicotyle chrysophryii, 4 h, read-out: LC50 (95% CI), toxicity level for adult S. chrysophrii; for b (SE), slope of dose–response model / e (SE), midpoint of dose–response model: Weibull type 2, c = 0, d = 1, mortality at 4 h post-exposure. As to the method:
Subsequently, the monogeneans (n = 6, in triplicate) were exposed to a range of seven concentrations tailored according to each compound’s activity observed in preliminary tests. The range for each compound was scaled down to an appropriate order of magnitude so that each compound reached 100% mortality at 4 h post-exposure (Table 1).
For the dose–response curve fitting, the drc package for R (v4.0.4) was used. An appropriate nonlinear regression model was selected between log-logistic and Weibull type models, based on the Akaike information criterion (AIC) and lack-of-fit test criteria through the use of mselect function. The best scoring model was Weibull type 2 model (asymmetrical) with lower and upper limits fixed to 0 and 1, respectively, as mortality in all assays reached 100%. […] Model parameters and estimated lethal doses (20%, 50%, and 80%) were calculated with standard errors and 95% confidence intervals, based on the delta method, respectively, and adjusted for simultaneous inference through multcomp package. Dose–response curves were visualised using ggplot2 library.

Data set [3] concerns wild and drug-resistant Leishmania donovani amastigotes. Also noted: method as in PMID 28400285. The conditions noted are these: cited from earlier work.

`CCCCCCc1ccc(O)cc1O` [4-Hexylresorcinol, reference compound]: the inhibition at 0.1 µM with Vibrio anguillarum (0.1 µM, 5 h at 25 °C) was -121 ± 10.9%; in the data set with Vibrio harveyi (0.1 µM, 5 h at 25 °C), 19.6 ± 31.5%. For the same compound, the inhibition at 1 µM was -76.1 ± 33.9% in the data set on Vibrio anguillarum (1 µM, 5 h at 25 °C) and 34.7 ± 10.1% with Vibrio harveyi (1 µM, 5 h at 25 °C). In addition, the inhibition at 10 µM was -55.5 ± 31.6% in the data set on Vibrio anguillarum (10 µM, 5 h at 25 °C) and 67.5 ± 14.1% with Vibrio harveyi (10 µM, 5 h at 25 °C). In addition, the “bactericidal activity against V. harveyi” value in the data set on Vibrio harveyi (synthetic compounds, at increased concentrations) is given as “significant bactericidal activity”. This compound yielded a mortality at 1000 µM in data set [1] (1 h) of 100%. For the same compound, in the data set with SAF-1 cells, the “viability of SAF-1 cells compared to control” value is reported as “did not induce a significant reduction in viability”.
For the compound `S=C=Nc1ccc(N=C=S)cc1` [Bitoscanate, reference compound], the “antimicrobial activity against V. anguillarum” value in the data set on Vibrio anguillarum (10 µM, p < 0.05) was “best antimicrobial activity”. For the same compound, in the data set with Vibrio anguillarum (5 h), the inhibition at 0.1 µM was -10.8 ± 19.9%, the inhibition at 1 µM came out at 19.6 ± 3.7% and the inhibition at 10 µM was found to be 30.5 ± 2%. Further, in the data set on Vibrio harveyi (5 h), the inhibition at 0.1 µM is -21.6 ± 6%, the inhibition at 1 µM was -0.088 ± 16.3% and the inhibition at 10 µM was 13.1 ± 5.1%. The mortality at 1000 µM in data set [1] (24 h) is 100%. Further, the “viability of SAF-1 cells compared to control” value in the data set with SAF-1 cells was “did not induce a significant reduction in viability”.
Turning to `C[C@@H]1CC[C@H]2C(C)(C)[C@H]3C[C@@]12CC[C@@]3(C)O` [Cedrol], in the data set with Vibrio anguillarum, the “potency / effect against V. anguillarum as judged in the discussion” value is recorded as “effective only against V. anguillarum”. Also, the inhibition at 0.1 µM with Vibrio anguillarum (0.1 µM, 5 h at 25 °C) is -6.9 ± 3%. For the same compound, the inhibition at 1 µM in the data set with Vibrio anguillarum (1 µM, 5 h at 25 °C) turned out to be 24.1 ± 8%. The inhibition at 10 µM with Vibrio anguillarum (10 µM, 5 h at 25 °C) was 30.8 ± 6.4%. Further, the “antibacterial activity against V. anguillarum” value with Vibrio anguillarum (p < 0.05) is on record as “strongest antibacterial activity”. For the same compound, in the data set on Vibrio harveyi (0.1 µM, 5 h at 25 °C), the inhibition at 0.1 µM was -44.9 ± 7.7%. Also, in the data set with Vibrio harveyi (1 µM, 5 h at 25 °C), the inhibition at 1 µM is -23.8 ± 6.9%. The inhibition at 10 µM in the data set with Vibrio harveyi (10 µM, 5 h at 25 °C) was -2.4 ± 26.9%. Also, in data set [2], the “LC20 (95% CI), toxicity level for adult S. chrysophrii” value is recorded as 0.09 (0.06–0.11) mM; the “LC80 (95% CI), toxicity level for adult S. chrysophrii” value is 0.14 (0.12–0.16) mM; the LC50 was determined as 110 µM; the “b (SE), slope of dose–response model” value is on record as 3.98 (0.66). Further, in data set [2], the “e (SE), midpoint of dose–response model” value is listed as 0.12 (0.01). The “times the L. donovani IC50 is lower than the LC50 observed for S. chrysophrii” value in data set [2] (IC50 1.5 μM (ref 33) against own LC50) is reported as “approximately 73”. In addition, the “reduction in sea bream fibroblasts' viability” value with SAF-1 cells (10 µM, 72 h of exposure) is “highest reduction in sea bream fibroblasts’ viability; also recorded: moderately toxic to the host cell line during long-term exposure to very high concentrations”. In addition, the “fold increase of selectivity index (CC50/IC50)” value in data set [3] (incorporated and delivered within lipid nanocarrier, wild-type L. donovani) is on record as 2.1. Also, the IC50 in data set [3] (wild and drug-resistant L. donovani amastigotes infecting humans, read-out: inhibitory concentration (IC50)) was 1500 nM.
In the case of `COc1cc(/C=C/C(=O)CC(=O)/C=C/c2ccc(O)c(OC)c2)ccc1O` [Curcumin], the “potency / effect against V. anguillarum as judged in the discussion” value in the data set on Vibrio anguillarum is listed as “potent anti-Vibrio anguillarum agent”. Further, the inhibition at 0.1 µM in the data set with Vibrio anguillarum (0.1 µM, 5 h at 25 °C) amounted to 9.5 ± 7.5%. For the same compound, the inhibition at 1 µM with Vibrio anguillarum (1 µM, 5 h at 25 °C) is 24.5 ± 14.6%. For the same compound, the inhibition at 10 µM with Vibrio anguillarum (10 µM, 5 h at 25 °C) was found to be 34.9 ± 1.2%. For the same compound, in the data set on Vibrio anguillarum (p < 0.05), the “antibacterial activity against V. anguillarum” value was “strongest antibacterial activity”. Moreover, in the data set with Vibrio harveyi, the “potency / effect against V. harveyi as judged in the discussion” value was “ineffective against V. harveyi”. Also, the inhibition at 0.1 µM in the data set on Vibrio harveyi (0.1 µM, 5 h at 25 °C) came to 2.1 ± 15%. Moreover, the inhibition at 1 µM in the data set on Vibrio harveyi (1 µM, 5 h at 25 °C) worked out at 7.6 ± 2.1%. In the data set with Vibrio harveyi (10 µM, 5 h at 25 °C), the inhibition at 10 µM was 10.4 ± 4.5%. Also, in data set [2], the “LC20 (95% CI), toxicity level for adult S. chrysophrii” value is 0.14 (0.06–0.23) mM; the “LC80 (95% CI), toxicity level for adult S. chrysophrii” value is given as 0.36 (0.26–0.45) mM; the LC50 worked out at 240 µM; the “b (SE), slope of dose–response model” value is reported as 2.14 (0.44). In data set [2], the “e (SE), midpoint of dose–response model” value is recorded as 0.29 (0.03). Moreover, the “fold less toxic for the monogenean compared to cedrol” value in data set [2] (comparison with cedrol) is 2. Also, in the data set on SAF-1 cells (10 µM for 24 h), the “cytotoxicity in SAF-1 cells” value is “exerted significant cytotoxicity”.

For orientation: mortality means the share of the test organisms that died. Low values mean more survivors, high ones fewer survivors. Broadly, the LC50 is the concentration lethal to half of the exposed cells or organisms.
